In patent publication US20230250054A1, “SELECTIVE HISTONE DEACETYLASE 6 INHIBITORS” (The Board of Trustees of the University of Illinois, priority 2020, published 2023):
“Also recorded” adds a separate entry of the source.

Legend:
[1] = tested on: SM1 murine melanoma cells; assay: CellTox Green cytotoxicity assay in SM1 cells; format: cell-based; conditions: 24 h
Protocol: (§1) The SM1 murine melanoma cells were obtained from Dr. A. Ribas at the University of California, Los Angeles. WM164 human melanoma cells were obtained from ATCC. The cells were cultured in an incubator in RPMI 1640, 1% penicillin-streptomycin, and 10% fetal bovine serum at 37° C. with 5% CO2. […] For STAT3 phosphorylation assays, cells were pre-treated with or without HDAC6i (5 μM) for overnight followed by treatment with recombinant human IL-6 (Biolegend) for 20 min. PBS was added as a control. RAW 264.7 macrophages were purchased from ATCC and cultured in DMEM medium supplemented with 10% FBS, 1% non-essential amino acids, and 2-mercaptoethanol (50 μM). RAW macrophages were treated with 1 μM, 5 μM, and 10 μM of Suprastat overnight before collecting the lysates for immunoblot assay. Cytotoxicity assay was performed using CellTox Green (Promega, Cat #G8731) following the manufacturer's instructions, and fluorescence readings were obtained on Spectramax i3 (Molecular Devices) multimode plate reader at wavelengths EX 485 nm and EM 520 nm. SM1 cells were treated with compounds at various concentrations for 24 h to determine cytotoxicity.

SM1 melanoma tumors = assay: Syngeneic SM1 murine melanoma model, tumor growth; format: in vivo; conditions: C57BL/6 mice with SM1 tumors; Suprastat 25 mg/kg IP, anti-PD1 15 mg/kg IP; vs control (PBS)
IL10 gene = IL10 gene expression by quantitative PCR in bone marrow-derived macrophages; format: cell-based; conditions: mouse bone marrow-derived macrophages, 5 μM, vs vehicle, mRNA quantification
Protocol: Total RNA was isolated from cells following the manufacturer's instructions of QIAzol (Qiagen, 79306). RNA quantification was done using NanoDrop One spectrophotometer (NanoDrop Technologies). Samples with absorbance at 260/280 ratios over 1.9 were used for cDNA synthesis with iScript cDNA synthesis kit (Bio-Rad, 1708891). Synthesized cDNA from 1 μg of total RNA was diluted 1:10 with nuclease-free water. The quantitative PCR analysis was performed using iQ SYBR Green Supermix (Bio-Rad, 1708882) on CFX96 real-time system (Bio-Rad). Gene expression analysis was performed using 2^−ΔΔCt method, and target mRNA levels were normalized to GAPDH expression. Cycling conditions were used as per manufacturer's instructions. Single PCR product amplification was confirmed by melting curve analysis in all the experiments performed. The sequence of primers used in the analysis are as follows: […]
Immune cells, such as macrophages, are a major cellular component of the tumor microenvironment. Tumor-associated macrophages are often tumor promoting by secreting anti-inflammatory cytokines such as TGFβ and IL-10. It was previously established that HDAC6 forms a complex with STAT3, and either pharmacological inhibition or shRNA mediated knockdown of HDAC6 decreased STAT3 recruitment at the IL10 promoter region in antigen-presenting cells (see, e.g., Cheng et al., J. Immunol. 193: 2850-2862 (2014)). […]

Ac—H3 = assay: Immunoblot of Ac-H3 in WM164 melanoma cells; format: cell-based, human; conditions: 0.1 to 10 μM, overnight
Protocol: as §1, with “RAW macrophages were treated with 1 μM, 5 μM, and 10 μM of Suprastat overnight before collecting the lysates for immunoblot assay.” left out, “SM1 cells were treated with compounds at various concentrations for 24 h to determine cytotoxicity.” left out
(§2) The cells were harvested and lysed with RIPA buffer (ThermoScientific, 89900) containing protease and phosphatase inhibitors (ThermoScientific, 78440) by sonication in Bioruptor (Diagenode) for 8 cycles of 30 seconds ON and 30 seconds OFF on high setting. To assess the expression of proteins, total protein samples were heat-denatured in SDS sample loading buffer, and 15-20 μg of protein was analysed on 4-20% SDS-PAGE gels (Bio-Rad, 456-1093). […]

immune cells = assay: Immune cell phenotyping by flow cytometry in the SM1 melanoma model; format: in vivo, C57BL/6 mice
Protocol: To understand the immunomodulatory properties of Suprastat, a comprehensive immune cell phenotyping by flow cytometry was performed. […] (see, e.g., Knox et al., Sci. Rep. 9: 6136 (2019)). […] A significant change in immunosuppressive T-regs (FIG. 6F) was not observed. […] (see, e.g., Knox et al., Sci. Rep. 9: 6136 (2019)).

physchem = conditions: PBS
Ac-α-tubulin [2] = assay: Immunoblot of Ac-α-tubulin in RAW 264.7 macrophages; format: cell-based; conditions: 1, 5, and 10 μM, overnight, listed as Suprastat
Protocol: as §1, with “RAW macrophages were treated with 1 μM, 5 μM, and 10 μM of Suprastat overnight before collecting the lysates for immunoblot assay.” left out, “SM1 cells were treated with compounds at various concentrations for 24 h to determine cytotoxicity.” left out
as §2

Ac-α-tubulin [3] = assay: Immunoblot of Ac-α-tubulin in WM164 melanoma cells; format: cell-based, human; conditions: 0.1 to 10 μM, overnight
Protocol: as §1, with “RAW macrophages were treated with 1 μM, 5 μM, and 10 μM of Suprastat overnight before collecting the lysates for immunoblot assay.” left out, “SM1 cells were treated with compounds at various concentrations for 24 h to determine cytotoxicity.” left out
as §2

in vitro = conditions: rat, liver microsomes
STAT3 = assay: IL-6 induced STAT3 phosphorylation in WM164 melanoma cells; format: cell-based, human; conditions: WM164 cells pre-treated with 5 μM, then IL-6 (30 ng/mL) for 20 min, vs IL-6 alone
Protocol: as §1, with “RAW macrophages were treated with 1 μM, 5 μM, and 10 μM of Suprastat overnight before collecting the lysates for immunoblot assay.” left out, “SM1 cells were treated with compounds at various concentrations for 24 h to determine cytotoxicity.” left out
as §2

Row | Structure (SMILES) | concentration at which cytotoxicity starts [1] [µM] | tumor burden (tumor volume) (SM1 melanoma tumors) | expression of IL10 gene (IL10 gene) | levels of acetylated histone H3 (Ac—H3) (Ac—H3) | F4/80+CD206+ pro-tumor M2 macrophages (immune cells; flow cytometry) | natural killer (NK) cells (immune cells; flow cytometry) | percentage of CD8+ central memory (CM) cells (immune cells; flow cytometry) | M1/M2 ratio (immune cells; relative to control and anti-PD1 groups) | half-life (physchem) [h] | levels of Ac-α-tubulin in RAW 264.7 macrophages (Ac-α-tubulin [2]) | levels of acetylated α-tubulin (Ac-α-tubulin) (Ac-α-tubulin [3]) | half-life (in vitro) [h] | Y705 phosphorylation of STAT3 (STAT3)
1 | CCCCN(Cc1ccc(C(=O)NO)cc1)C(=O)Nc1ccc(CN)cc1 [Compound 6b, 4-((3-(4-(Aminomethyl)phenyl)-1-butylureido)methyl)-N-hydroxybenzamide] | 10 |  |  |  |  |  |  |  |  |  |  |  | 
2 | NCc1ccc(NC(=O)N(CCCCO)Cc2ccc(C(=O)NO)cc2)cc1 [Compound 6a, 4-((3-(4-(Aminomethyl)phenyl)-1-(4-hydroxybutyl)ureido)methyl)-N-hydroxybenz-amide] |  | reduced the tumor burden | decreased expression of IL10 gene | slight increase in the levels of Ac—H3 | significantly decreased | positive trend | increase in the percentage of CD8+ central memory (CM) cells | significantly higher M1/M2 ratio | > 24 | dose-dependent effect; also recorded: dose-dependent increase in the levels of Ac-α-tubulin | highest Ac-α-tubulin level | 2.88 | decreased Y705 phosphorylation of STAT3
